From patent US20200368193A1 (Concert Pharmaceuticals, Inc., priority 2017, published 2020)
Read-outs that look alike come from different tables or passages of the source.

Columns and labels:
[1] = Plasma, hippocampus and cortex concentration of Compound 100 after a 30 mg/kg PO dose (Example 1); type: in vivo, male Sprague Dawley rats; conditions: male, Sprague-Dawley, rat, mean
Protocol: The mean plasma, hippocampus, and cortex concentrations at 1 hour were 19200 ng/mL, 674 ng/g, and 754 ng/g, respectively. The mean plasma, hippocampus, and cortex concentrations at 6 hours were 1780 ng/mL, 1385 ng/g, and 936 ng/g, respectively.

[2] = Pharmacokinetic profile of Compound 100 and non-deuterated D-serine after 150 mg/kg PO doses (Example 3); type: in vivo, male Sprague-Dawley rats; conditions: for concentration at 4 h / concentration at 8 h / concentration at 24 h / AUC(0-inf) / Cmax / Tmax: male, Sprague-Dawley, rat; for concentration at 4 h / concentration at 8 h / concentration at 24 h: po
Text: (§1) The pharmacokinetic profile of Compound 100 was investigated in male Sprague-Dawley rats compared with that of non-deuterated D-serine. […] Plasma was collected and analyzed for Compound 100 and non-deuterated D-Serine. Additional blood was collected and analyzed for the full clinical chemistry profile.

[3] = tested on: Male Sprague-Dawley Rats; assay: Nephrotoxicity of Compound 100 and non-deuterated D-serine at 150 mg/kg PO (Example 3); type: in vivo
Text: as §1

[4] = tested on: rats; assay: Nephrotoxicity comparison at doses from 150 mg/kg to 750 mg/kg (dose escalation, FIGS. 7-10); type: in vivo; conditions: for changes in BUN or creatinine: PO doses from 150 mg/kg to 750 mg/kg
[5] = Pharmacokinetics of deuterated and non-deuterated D-serine, PO 10 mg/kg (Example 5); type: in vivo, male Sprague Dawley rats; conditions: male, Sprague Dawley, rat, plasma, 0.5% Methylcellulose
Protocol: Three rats were used for each group. Blood was collected at the following time points: for IV dosing: pre-dose, 0.05, 0.167, 0.5, 1, 2, 4, 6, 8 and 12 hours post-dose; for PO dosing: pre-dose, 0.25, 0.5, 1, 2, 4, 6, 8 and 12 hours post-dose PO. Urine was collected at pre-dose (minimum 12 hours), 0-6, 6-12 and 12-24 hours. Plasma samples were analyzed and quantified for dosed compound LC-MS/MS.

[6] = biological target: T1, human NMDAR subunits GluN1 and GluN2A (Homo sapiens, UniProt Q05586); assay: NMDA receptor activation in automated patch clamp system (ScreenPatch); type: cell-based; conditions: HEK293 cells, 0.003 to 10 μM, Compound 100 versus d-serine
T1 construct: expressed in transfected cells; host or cells: HEK293
Protocol: Peak current and steady state current were measured. The activity at the NMDA receptor was indistinguishable for the two compounds.

[7] = Brain distribution of Compound 100 after a single 100 mg/kg PO dose (Example 10); type: in vivo, male Sprague-Dawley rats; conditions: male, Sprague-Dawley, rat, mean
Protocol: The distribution profile of Compound 100 was investigated in male Sprague-Dawley rats. […] At 24 hours after dosing, tissues from perfused brain and plasma were collected and analyzed by LC-MS.

[8] = Cortex versus plasma half-life of Compound 100 after 4 days of 100 mg/kg PO dosing (Example 11); type: in vivo, male Sprague-Dawley rats; conditions: male, Sprague-Dawley, rat, 100 mg/kg PO once per day for 4 days
Protocol: After 4 days, tissues from perfused brain and plasma were collected and analyzed by LC-MS at 24 hours (group 1), 72 hours (group 2) and 120 hours (group 3) after dosing.

[9] = Pharmacokinetics of non-deuterated D-serine after a 300 mg/kg PO dose (Example 2); type: in vivo, Male Sprague-Dawley Rats; conditions: male, Sprague-Dawley, rat; for concentration at 1 h: oral, 300 mg/kg, 1 hour (in Example 2); for concentration at 1 h / concentration at 8 h: mean
Protocol: (§2) The hippocampus, cortex and plasma were collected and analyzed. Additional blood was collected and were analyzed for the full clinical chemistry profile. Urine was also collected and examined for glucose and total protein. […] The mean plasma, hippocampus, and cortex concentration at 1 hour are 19200 ng/mL, 674 ng/g, and 754 ng/g; respectively. The mean plasma, hippocampus, and cortex concentrations at 8 hours were 11250 ng/mL, 17725 ng/g, and 11875 ng/g, respectively. […] Blood urea nitrogen and creatinine levels were elevated.

[10] = tested on: Male Sprague-Dawley Rats; assay: Nephrotoxicity of non-deuterated D-serine at 300 mg/kg PO (Example 2); type: in vivo
Protocol: as §2

[11] = Pharmacokinetics dose response of non-deuterated D-serine, 30-300 mg/kg PO (Example 4); type: in vivo, male Sprague-Dawley rats; conditions: plasma; for Cmax / AUC(0-inf): (CV %)
Text: (§3) The pharmacokinetic profile of non-deuterated D-serine was investigated in male Sprague-Dawley rats. […] Plasma was collected and analyzed for the non-deuterated D-serine. Additional blood was collected and analyzed for the full clinical chemistry profile.

[12] = tested on: Male Sprague-Dawley Rats; assay: Nephrotoxicity dose response of non-deuterated D-serine, 30-300 mg/kg PO (Example 4); type: in vivo; conditions: 24 hr samples at the 150 and 300 mg/kg doses, compared to control and reference values
Text: as §3

[13] = cortex, read-out: Cortex concentration
[14] = hippocampus, read-out: Hippocampus concentration
[15] = plasma, read-out: Plasma concentration
[16] = cortex, 150 mg/kg, mean, read-out: Cortex concentration
[17] = hippocampus, 150 mg/kg, mean, read-out: Hippocampus concentration
[18] = plasma, 150 mg/kg, mean, read-out: Plasma concentration
[19] = dose escalation 150 mg/kg to 750 mg/kg
[20] = serum, D-serine at 24 hr, Compound 100 at 4, 8, and 24 hours

[2H][C@@](N)(CO)C(=O)O [Compound 100, (2R)-2-amino-2-deutero-3-hydroxy-propanoic acid]
concentration at 1 h [1, 13]: 754 ng/g
concentration at 6 h [1, 13]: 936 ng/g
concentration at 1 h [1, 14]: 674 ng/g
concentration at 6 h [1, 14]: 1380 ng/g
concentration at 1 h [1, 15]: 19200 ng/mL
concentration at 6 h [1, 15]: 1780 ng/mL
concentration at 4 h [2, 16]: 5070 ng/g
concentration at 8 h [2, 16]: 4040 ng/g
concentration at 24 h ([2]; cortex, 150 mg/kg, mean, 24 hr, read-out: Cortex concentration): 2420 ng/g
concentration at 4 h [2, 17]: 6160 ng/g
concentration at 8 h [2, 17]: 4340 ng/g
concentration at 24 h ([2]; hippocampus, 150 mg/kg, mean, 24 hr, read-out: Hippocampus concentration): 4200 ng/g
AUC(0-inf) ([2]; plasma): 383 µg·h/mL
Cmax ([2]; plasma): 186000 ng/mL
Tmax ([2]; plasma): 40 min
concentration at 4 h [2, 18]: 23300 ng/mL
concentration at 8 h [2, 18]: 2040 ng/mL
concentration at 24 h ([2]; plasma, 150 mg/kg, mean, 24 hr, read-out: Plasma concentration): 711 ng/mL
Hippocampus concentration ([2]; mean, 24 hr, 150 mg/kg): 4220 ng/g
levels of biomarkers of nephrotoxicity [3]: did not increase
changes in BUN or creatinine [4]: minimal changes
exposure as measured by AUC and Cmax, versus non-deuterated D-serine [4, 19]: greater
gross signs of nephrotoxicity [4, 19]: not
AUC(0-inf) [5]: 21.5 µg·h/mL
Cmax [5]: 11400 ng/mL
Tmax [5]: 25 min
half-life [5]: 160 min
activity at the NMDA receptor (peak current and steady state current) [6]: indistinguishable
concentration at 24 h ([7]; brain stem, perfused brain, read-out: brain stem concentration): 721 ng/g
concentration at 24 h ([7]; cerebellum, perfused brain, read-out: cerebellum concentration): 290 ng/g
concentration at 24 h ([7]; cortex, perfused brain, read-out: cortex concentration): 4660 ng/g
concentration at 24 h ([7]; plasma, read-out: plasma concentration): 880 ng/mL
half-life ([8]; cortex, read-out: half-life (T1/2) in the cortex (converted)): ~48 h
half-life ([8]; plasma, read-out: plasma T1/2): < 12 h

N[C@H](CO)C(=O)O [Non-deuterated D-Serine, D-serine]
concentration at 1 h [9, 13]: 754 ng/g
concentration at 8 h ([9]; cortex, 300 mg/kg PO, read-out: Cortex concentration): 11900 ng/g
concentration at 1 h [9, 14]: 674 ng/g
concentration at 8 h ([9]; hippocampus, 300 mg/kg PO, read-out: Hippocampus concentration): 17700 ng/g
concentration at 1 h [9, 15]: 19200 ng/mL
concentration at 8 h ([9]; plasma, 300 mg/kg PO, endogenous level subtracted, read-out: Plasma concentration): 11200 ng/mL
AUC(0-inf) ([9]; plasma, 300 mg/kg PO): 500 µg·h/mL
Cmax ([9]; plasma, 300 mg/kg PO): 268000 ng/mL
Tmax ([9]; plasma, 300 mg/kg PO): 30 min
half-life ([9]; plasma, 300 mg/kg PO): 218 min
Blood urea nitrogen level [10]: elevated
creatinine level [10]: elevated
glucose in urine [10]: presence of glucose was observed
AUC(0-inf) ([2]; plasma): 349 µg·h/mL
Cmax ([2]; plasma): 180000 ng/mL
Tmax ([2]; plasma): 20 min
levels of biomarkers of nephrotoxicity [3]: caused an increase
blood urea nitrogen (BUN) level ([3]; serum, D-serine at 8 hr and 24 hr, Compound 100 at 4, 8, and 24 hours): Elevated levels
creatinine level [3, 20]: Elevated levels
gamma glutamyl transferase (GGT) level [3, 20]: Elevated levels
changes in BUN or creatinine [4]: increasingly elevated levels
gross signs of nephrotoxicity [4, 19]: observed
Tmax ([11]; male, Sprague-Dawley, rat, po, 30 mg/kg, 30 mg/kg PO): 30 min
Cmax ([11]; male, Sprague-Dawley, rat, po, 30 mg/kg, 30 mg/kg PO, read-out: Cmax): 24300 ng/mL
Tmax ([11]; male, Sprague-Dawley, rat, po, 75 mg/kg, 75 mg/kg PO): 30 min
Cmax ([11]; male, Sprague-Dawley, rat, po, 75 mg/kg, 75 mg/kg PO, read-out: Cmax): 54300 ng/mL
Tmax ([11]; male, Sprague-Dawley, rat, po, 100 mg/kg, 100 mg/kg PO): 30 min
Cmax ([11]; male, Sprague-Dawley, rat, po, 100 mg/kg, 100 mg/kg PO, read-out: Cmax): 96100 ng/mL
Tmax ([11]; male, Sprague-Dawley, rat, po, 150 mg/kg, 150 mg/kg PO): 18 min
Cmax ([11]; male, Sprague-Dawley, rat, po, 150 mg/kg, 150 mg/kg PO, read-out: Cmax): 180000 ng/mL
Tmax ([11]; male, Sprague-Dawley, rat, po, 300 mg/kg, 300 mg/kg PO): 30 min
Cmax ([11]; male, Sprague-Dawley, rat, po, 300 mg/kg, 300 mg/kg PO, read-out: Cmax): 216000 ng/mL
Tmax ([11]; male, Sprague-Dawley, rat, po, 300 mg/kg, all doses 30, 75, 100, 150, and 300 mg/kg PO): 18 to 30 min
AUC(0-inf) ([11]; male, Sprague-Dawley, rat, 30 mg/kg PO): 50.6 µg·h/mL
AUC(0-inf) ([11]; male, Sprague-Dawley, rat, 75 mg/kg PO): 148 µg·h/mL
AUC(0-inf) ([11]; male, Sprague-Dawley, rat, 100 mg/kg PO): 246 µg·h/mL
AUC(0-inf) ([11]; male, Sprague-Dawley, rat, 150 mg/kg PO): 349 µg·h/mL
AUC(0-inf) ([11]; male, Sprague-Dawley, rat, 300 mg/kg PO): 911 µg·h/mL
Cmax ([11]; 300 mg/kg PO, 300 mg/kg): 261000 (32.3%) ng/mL
creatine level [12]: Elevated levels
gamma glutamyl transferase (GGT) level [12]: Elevated levels
urea nitrogen level [12]: Elevated levels
AUC(0-inf) [5]: 13.2 µg·h/mL
Cmax [5]: 8780 ng/mL
Tmax [5]: 25 min
half-life [5]: 106 min
activity at the NMDA receptor (peak current and steady state current) [6]: indistinguishable
